In patent US12275731B2, “Azaindole inhibitors of wild-type and mutant forms of LRRK2” (DANA-FARBER CANCER INSTITUTE, INC., priority 2018, dated 2025) one finds remaining binding data, which are given here for three compounds.

Test in all cases: KinomeScan profiling
Format in all cases: binding

One test addresses CAMK1B (Homo sapiens, UniProt Q6P2M8). As to conditions: read-out: % control. A digest of the protocol:
(§1)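 Selectivity was assessed by binding competition at 1 μM against 468 kinases. Values below 35% of control define an interaction.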

Another test deals with T1, PIK3CA(C420R) (Homo sapiens, UniProt P42336, C420R).
T1 construct: purchased KinomeScan® (panel service)
T1 sequence (P42336 whole entry C420R): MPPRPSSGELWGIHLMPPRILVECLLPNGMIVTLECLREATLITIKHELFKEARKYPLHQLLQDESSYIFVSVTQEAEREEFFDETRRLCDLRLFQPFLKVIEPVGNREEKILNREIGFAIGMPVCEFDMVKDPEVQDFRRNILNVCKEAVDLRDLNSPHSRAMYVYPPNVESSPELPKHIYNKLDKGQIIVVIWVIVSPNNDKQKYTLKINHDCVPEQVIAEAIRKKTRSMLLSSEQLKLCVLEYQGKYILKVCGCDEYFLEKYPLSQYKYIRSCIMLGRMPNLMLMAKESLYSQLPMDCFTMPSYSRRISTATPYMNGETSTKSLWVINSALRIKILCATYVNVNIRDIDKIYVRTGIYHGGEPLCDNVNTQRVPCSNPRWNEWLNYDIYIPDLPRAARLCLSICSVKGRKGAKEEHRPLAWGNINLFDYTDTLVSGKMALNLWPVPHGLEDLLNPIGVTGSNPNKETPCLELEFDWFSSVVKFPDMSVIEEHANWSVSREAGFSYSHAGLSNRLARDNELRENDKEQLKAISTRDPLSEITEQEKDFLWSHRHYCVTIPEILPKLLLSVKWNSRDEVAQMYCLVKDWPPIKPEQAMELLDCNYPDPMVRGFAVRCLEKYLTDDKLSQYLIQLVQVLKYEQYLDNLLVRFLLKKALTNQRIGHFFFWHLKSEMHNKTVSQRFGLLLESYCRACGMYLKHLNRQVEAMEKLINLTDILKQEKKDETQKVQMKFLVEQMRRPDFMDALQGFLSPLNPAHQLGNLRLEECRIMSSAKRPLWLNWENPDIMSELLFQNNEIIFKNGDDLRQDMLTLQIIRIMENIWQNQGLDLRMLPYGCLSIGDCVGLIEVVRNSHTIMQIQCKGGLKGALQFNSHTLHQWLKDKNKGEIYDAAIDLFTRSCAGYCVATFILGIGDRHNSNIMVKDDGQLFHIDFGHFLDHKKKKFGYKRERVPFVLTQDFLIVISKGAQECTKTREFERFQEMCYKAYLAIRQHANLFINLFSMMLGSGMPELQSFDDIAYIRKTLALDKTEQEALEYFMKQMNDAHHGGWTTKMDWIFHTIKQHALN
As to conditions: read-out: % control. The essentials: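 Compounds were screened at 1 μM in DMSO across a 468-kinase KinomeScan panel. Binding was expressed as % control, scaled between a positive control (0%) and DMSO (100%) using luminescence signal. A value under 35% counted as active.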

The next test addresses T2, STK39 (Homo sapiens, UniProt Q9UEW8).
T2 construct: purchased KinomeScan® (panel service)
As to conditions: STK39, 1 μM; read-out: % control. The essentials: as §1

In another test the target is T3, MARK4 (Homo sapiens, UniProt Q96L34).
T3 sequence (Q96L34 1-752): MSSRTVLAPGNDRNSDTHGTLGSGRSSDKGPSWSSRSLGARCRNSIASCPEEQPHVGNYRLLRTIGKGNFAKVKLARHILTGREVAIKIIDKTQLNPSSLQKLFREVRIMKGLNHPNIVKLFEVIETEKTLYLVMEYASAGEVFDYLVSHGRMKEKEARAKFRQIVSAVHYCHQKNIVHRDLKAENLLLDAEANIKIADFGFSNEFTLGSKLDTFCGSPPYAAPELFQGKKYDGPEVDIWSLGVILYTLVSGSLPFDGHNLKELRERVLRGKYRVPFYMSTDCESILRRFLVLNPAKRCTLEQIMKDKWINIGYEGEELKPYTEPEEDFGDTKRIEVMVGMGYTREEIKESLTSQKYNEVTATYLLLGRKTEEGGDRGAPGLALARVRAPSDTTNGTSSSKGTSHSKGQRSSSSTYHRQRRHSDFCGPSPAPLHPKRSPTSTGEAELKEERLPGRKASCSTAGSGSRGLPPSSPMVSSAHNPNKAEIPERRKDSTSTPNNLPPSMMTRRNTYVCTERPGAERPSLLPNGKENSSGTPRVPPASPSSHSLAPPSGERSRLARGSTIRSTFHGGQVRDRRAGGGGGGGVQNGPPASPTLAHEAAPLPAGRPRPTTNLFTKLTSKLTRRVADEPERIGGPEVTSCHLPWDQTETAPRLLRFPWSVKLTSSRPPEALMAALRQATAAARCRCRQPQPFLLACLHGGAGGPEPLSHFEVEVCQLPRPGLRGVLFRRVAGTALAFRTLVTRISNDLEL
As to conditions: MARK4, 1 μM; read-out: % control. A digest of the protocol:
as §1

Another test concerns the target T4, MERTK (Homo sapiens, UniProt Q12866).
T4 sequence (Q12866 21-999): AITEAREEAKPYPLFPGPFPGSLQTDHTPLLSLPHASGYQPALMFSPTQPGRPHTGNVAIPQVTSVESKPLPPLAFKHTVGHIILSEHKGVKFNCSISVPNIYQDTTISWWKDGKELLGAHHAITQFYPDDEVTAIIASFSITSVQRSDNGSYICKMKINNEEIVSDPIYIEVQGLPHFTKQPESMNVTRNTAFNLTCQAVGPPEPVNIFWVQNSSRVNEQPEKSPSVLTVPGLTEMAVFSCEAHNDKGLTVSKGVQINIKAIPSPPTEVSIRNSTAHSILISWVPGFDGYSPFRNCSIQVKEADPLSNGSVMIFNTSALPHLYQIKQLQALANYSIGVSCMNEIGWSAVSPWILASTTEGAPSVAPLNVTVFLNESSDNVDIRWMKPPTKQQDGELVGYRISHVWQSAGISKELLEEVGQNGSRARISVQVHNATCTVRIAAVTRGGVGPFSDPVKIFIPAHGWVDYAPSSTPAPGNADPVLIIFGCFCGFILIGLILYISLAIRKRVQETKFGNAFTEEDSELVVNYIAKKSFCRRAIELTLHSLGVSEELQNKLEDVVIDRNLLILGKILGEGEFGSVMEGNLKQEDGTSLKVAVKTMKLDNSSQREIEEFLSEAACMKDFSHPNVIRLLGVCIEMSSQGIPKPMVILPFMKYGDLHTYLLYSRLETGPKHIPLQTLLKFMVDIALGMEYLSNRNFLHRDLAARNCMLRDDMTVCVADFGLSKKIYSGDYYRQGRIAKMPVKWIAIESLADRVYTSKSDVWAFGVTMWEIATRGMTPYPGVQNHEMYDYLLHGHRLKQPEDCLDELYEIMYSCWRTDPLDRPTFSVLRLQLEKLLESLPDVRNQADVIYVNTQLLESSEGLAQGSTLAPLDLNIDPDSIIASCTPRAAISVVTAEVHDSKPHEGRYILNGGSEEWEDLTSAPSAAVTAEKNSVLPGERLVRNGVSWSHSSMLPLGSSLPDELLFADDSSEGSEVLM
As to conditions: read-out: % control. The essentials: as §1

Chain of CAMK1B (Q6P2M8 whole entry): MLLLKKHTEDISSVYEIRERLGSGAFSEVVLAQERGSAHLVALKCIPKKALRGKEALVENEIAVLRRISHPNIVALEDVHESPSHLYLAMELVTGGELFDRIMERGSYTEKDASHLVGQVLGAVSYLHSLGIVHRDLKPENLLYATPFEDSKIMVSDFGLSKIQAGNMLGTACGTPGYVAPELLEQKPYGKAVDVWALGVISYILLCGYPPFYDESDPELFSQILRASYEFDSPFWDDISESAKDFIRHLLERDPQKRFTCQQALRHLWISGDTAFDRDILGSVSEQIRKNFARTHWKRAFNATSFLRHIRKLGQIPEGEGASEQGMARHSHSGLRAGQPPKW

Take `CNc1c(-c2cnn([C@H]3CCN(C(C)=O)C[C@@H]3F)c2)cnc2[nH]cc(Cl)c12` [Compound 77, 1-((3S,4S)-4-(4-(3-chloro-4-(methylamino)-1H-pyrrolo[2,3-b]pyridin-5-yl)-1H-pyrazol-1-yl)-3-fluoropiperidin-1-yl)ethan-1-one]: the remaining binding at 1 µM at CAMK1B came to 74%; on PIK3CA(C420R) it was 75%; on STK39, 16%; at MARK4 it was 36%; on MERTK it was 45%.
Turning to `CNc1c(-c2ccc(C(=O)N3CCC(N4CCOCC4)CC3)cc2)cnc2[nH]cc(Cl)c12` [Compound 96, (4-(3-chloro-4-(methylamino)-1H-pyrrolo[2,3-b]pyridin-5-yl)phenyl)(4-morpholinopiperidin-1-yl)methanone], the remaining binding at 1 µM at CAMK1B is 87%; on PIK3CA(C420R) it was 75%; on STK39, 9.7%; at MARK4, 38%; at MERTK, 42%.
`O=C(c1ccc(-c2cnc3[nH]cc(Cl)c3c2NC2CCCC2)cc1)N1CCC(N2CCOCC2)CC1` [Compound 101, (4-(3-chloro-4-(cyclopentylamino)-1H-pyrrolo[2,3-b]pyridin-5-yl)phenyl)(4-morpholinopiperidin-1-yl)methanone]: the remaining binding at 1 µM on CAMK1B was 69%; on PIK3CA(C420R) it was 100%; on STK39, 80%; on MARK4 it was 82%; on MERTK, 41%.
